Source: patent US10780078B2, “Mu opioid receptor modulators” (THE REGENTS OF THE UNIVERSITY OF CALIFORNIA, priority 2017, dated 2020)
Like-named read-outs stand apart in the source and are kept apart here.

Experiments:
δ (DOR) receptor = δ (DOR) receptor (Homo sapiens (Human), UniProt P41143); experiment: Inhibitory constant at δ opioid receptor (DOR); assay type: binding
μ (MOR) receptor = μ (MOR) receptor (Homo sapiens (Human), UniProt P35372); experiment: Inhibitory constant at μ opioid receptor (MOR); assay type: binding
human μOR = human μOR (Homo sapiens (Human), UniProt P35372); experiment: cell-based
Experimental: Determination of functional activity of selected embodiments was performed using a BRET-based cAMP accumulation assay. […] After 24 hrs of transfection cells were seeded into white half-area 96-well plates at a density of 10000 cells/well and grown for further 24 hrs. On the day of measurement, medium was removed and replaced by Phosphate Buffered Saline (PBS) and cells were serum starved for 1 hr before treatment with ligands. Cells were preincubated with coelenterazine h (Progmega, Mannheim, Germany) for 5 min at a final concentration of 5 μM before adding forskolin (final concentration 10 μM) to start cAMP accumulation. Immediately after adding forskolin, a series of concentrations of test compounds were added to the cells. After incubating the microplates for 15 min at 37° C. BRET, measurement was performed using a Clariostar plate reader (BMG LabTech, Ortenberg, Germany).

[1] = molecular target: MOR (ProLink tagged MOR-PK1 cotransfected with GRK2 / β-arrestin-2) (Homo sapiens (Human), UniProt P35372); experiment: β-arrestin recruitment in the presence of GRK2, PathHunter assay; assay type: cell-based; conditions: for MOR activation, β-arrestin recruitment (+GRK2) Emax: HEK-293 cells cotransfected with GRK2; for EC50: MOR activation, β-arrestin recruitment (+GRK2) EC50, HEK-293 cells cotransfected with GRK2
Experimental: (§1) β-Arrestin recruitment was measured by using the PathHunter enzyme complementation assay (DiscoverX, Birmingham, U.K.) as described in the manufacturer's protocol. […] After 24 h cells were transferred into white clear bottom 384-well plates (5000 cells/well) (Greiner Bio-One) and maintained for further 24 h at 37° C., 5% CO2. Test compounds were incubated with the cells in a range from 0.01 nM to 1 μM dissolved in PBS for 90 min at 37° C. Arrestin recruitment was stopped by addition of detection mix for 60 min at room temperature. Chemiluminescence was determined using a Clariostar plate reader. Data analysis was done by nonlinear regression using the algorithms for log(agonist) vs. response of PRISM 6.0 (GraphPad, San Diego, Calif.). […] For testing the arrestin recruitment in the presence of GRK proteins cells were cotransfected with ProLink tagged MOR-PK1 and GRK2 at equal quantities.

[2] = molecular target: MOR (ProLink tagged MOR-PK1 / β-arrestin-2) (Homo sapiens (Human), UniProt P35372); experiment: β-arrestin recruitment, PathHunter enzyme complementation assay (DiscoverX); assay type: cell-based; conditions: for MOR activation, β-arrestin recruitment Emax: HEK-293 cells, normalized to maximum effect of DAMGO (100%); for Emax: HEK293, read-out: MOR activation, β-arrestin recruitment Emax
Experimental: as §1

[3] = Example 1, read-out: MOR: cAMP BRET: EC50
[4] = HEK-293T cells, forskolin 10 μM, mean of three to ten experiments, read-out: MOR activation, cAMP accumulation EC50
[5] = normalized to maximum effect of DAMGO (100%)

δ (DOR) receptor, sequence (P41143 whole entry, looked up): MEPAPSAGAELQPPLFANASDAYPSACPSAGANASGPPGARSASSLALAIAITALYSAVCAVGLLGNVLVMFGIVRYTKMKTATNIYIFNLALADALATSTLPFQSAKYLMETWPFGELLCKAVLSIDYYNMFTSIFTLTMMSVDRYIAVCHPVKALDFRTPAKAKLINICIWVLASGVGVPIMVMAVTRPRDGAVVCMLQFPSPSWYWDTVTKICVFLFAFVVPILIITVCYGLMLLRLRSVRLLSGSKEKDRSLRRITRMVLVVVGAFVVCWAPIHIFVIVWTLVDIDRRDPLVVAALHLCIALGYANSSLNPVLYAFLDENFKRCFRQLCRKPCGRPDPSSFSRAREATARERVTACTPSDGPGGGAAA

Row | SMILES | Ki (δ (DOR) receptor) [nM] | Ki (μ (MOR) receptor) [nM] | MOR activation, cAMP accumulation Emax (human μOR) [%] | MOR: cAMP BRET: Emax (human μOR; Example 1) [%] | EC50 (human μOR; [3]) [nM] | EC50 (human μOR; [4]) [nM] | MOR activation, β-arrestin recruitment (+GRK2) Emax [1, 5] [%] | MOR activation, β-arrestin recruitment Emax [2] [%] | EC50 [1] [nM] | Emax [2] [%] | Emax (human μOR; Example 1, read-out: MOR: cAMP BRET: Emax) [%] | Emax (human μOR; HEK-293T, read-out: MOR activation, cAMP accumulation Emax) [%] | Emax ([1]; HEK293, read-out: MOR activation, β-arrestin recruitment (+GRK2) Emax, HEK-293 cells cotransfected with GRK2, normalized to maximum effect of DAMGO (100%)) [%] | MOR: Arrestin DiscoverX ([2]; Example 1)
1 | C[C@@H](Cc1ccsc1)NC(=O)NCC1(N(C)C)CCc2ccccc2C1 (single isomer, unassigned) [DD 262 P1] | 14000 | 2600 |  |  |  |  |  |  |  |  |  |  |  | 
2 | C[C@@H](Cc1ccsc1)NC(=O)NCC1(N(C)C)CCc2ccccc2C1 (single isomer, unassigned) [DD 262 P2] | 7400 | 1300 |  |  |  |  |  |  |  |  |  |  |  | 
3 | C[C@@H](Cc1ccsc1)NC(=O)NCC1(N(C)C)CCc2cc(O)ccc2C1 (single isomer, unassigned) [DD 272A] | 1800 | 140 | 75 | 108 | 136 | 24 | <3 | <3 |  |  |  |  |  | 
4 | C[C@@H](Cc1ccsc1)NC(=O)NCC1(N(C)C)CCc2cc(O)ccc2C1 (single isomer, unassigned) [DD 272B] | 840 | 57 | 98 | 50 | 1.6 | 1.5 | 7 |  | 450 | < 3 |  |  |  | 
5 | C[C@@H](Cc1ccsc1)NC(=O)NCC1(N(C)C)Cc2ccc(O)cc2C1 (single isomer, unassigned) [DD 297A] | 68 | 5.9 |  |  | 1.8 | 1.2 |  |  | 42 | < 3 | 80 | 80 | 13 | 
6 | C[C@@H](Cc1ccsc1)NC(=O)NCC1(N(C)C)Cc2ccc(O)cc2C1 (single isomer, unassigned) [DD 297B] | 2000 | 190 | 73 | 65 | 12.5 | 13 | 7 | <3 | 670 |  |  |  |  | 
7 | C[C@@H](Cc1ccsc1)NC(=O)NCC1(N(C)C)Cc2ccccc2C1 [DD 277, (S)-1-((2-(dimethylamino)-2,3-dihydro-1H-inden-2-yl)methyl)-3-(1-(thiophen-3-yl)propan-2-yl)urea] | 8400 | 500 |  |  |  |  |  |  |  |  |  |  |  | 
8 | C[C@@H](Cc1ccsc1)NC(=O)NCC1(N(C)C)Cc2ccc(O)cc2C1 (stereo partly drawn) [DD 297A, 1-((2-(dimethylamino)-5-hydroxy-2,3-dihydro-1H-inden-2-yl)methyl)-3-((S)-1-(thiophen-3-yl)propan-2-yl)urea] |  |  |  |  |  |  |  |  |  |  |  |  |  | no significant activity
